How the values were obtained:
Type in all cases: cell-based, human
RalA-GTP = experiment: steady-state RalA-GTP, GST-RalBD pulldown assay
Method: (§1) Unless otherwise indicated, cells were lysed 48 hours after being treated with lysis buffer, as described in Haklai, et al., supra. […] Protein bands were visualized by ECL and quantified by densitometry with Image Master VDS-CL (Amersham) using TINA 2.0 software (Ray Tests). To obtain reliable comparisons between replicated experiments for statistical analysis, a standardization procedure was used, in which the density of each given protein band as recorded with its specific Ab, was normalized. […] The standard average density was defined as 1.0, and each of the individually determined bands was related to this value. […] Actin cytoskeletal elements were labeled with rhodamine-phalloidin, and digital fluorescence images were collected on a Zeiss LSM 510 confocal microscope fitted with fluorescein and rhodamine filters, as described in Gana-Weisz, M., et al., supra.
Next, to determine whether down-regulation of active Ras by FTS was accompanied by inhibition of Ras signaling, the effect of FTS on steady-state levels of phospho-ERK, phospho-Akt, and RalA-GTP as read-outs of the three prominent Ras pathways, Ras/Raf/MEK/ERK, Ras/PI3K/Akt, and Ras/RalGEF/RalA, respectively, was examined. […]

phospho-Akt = experiment: serum-stimulated phospho-Akt, kinetic study
Method: as §1
First, the time courses of serum-stimulated GTP loading of Ras and serum-stimulated activation of signals downstream of Ras were determined. […]

Ras-GTP = experiment: steady-state Ras-GTP, GST-RBD pull-down assay; details: 75 μM FTS, 48 hours, TS265P21, 90-8, and ST88-14 cells, P<0.03
Method: as §1
To determine whether the steady-state levels of active Ras in the MPNST cell lines correlated with neurofibromin deficiency, the GST-Ras binding domain of Raf-1 (RBD) pull-down assay and Western immunoblotting with anti-Ras Ab was performed. […] Thus, the relatively large amounts of Ras-GTP detected in the MPNST cell lines and the relatively small amounts in the non-NF-1 MPNST (FIG. 1D) correlated well with the observed neurofibromin deficiency (FIG. 1C). […]

CC(C)=CCC/C(C)=C/CC/C(C)=C/CSc1ccccc1C(=O)O [FTS, S-farnesylthiosalicylic acid]
steady-state RalA-GTP (RalA-GTP; all NF-1 cell lines): significant reduction
steady-state RalA-GTP (RalA-GTP; non-NF-1 STS26T cells): significant reduction
serum-stimulated increase in phospho-Akt (phospho-Akt; STS26T cells, serum-starved 24 hours, stimulated with 10% serum): inhibited
serum-stimulated increase in phospho-Akt (phospho-Akt; all NF-1 cell lines (T265P21, ST88-14, 90-8)): reduced
reduction in steady-state levels of Ras-GTP (Ras-GTP): 25%-55%

From US20110046223A1, “TREATMENT OF NEUROFIBROMATOSIS” (RAMOT AT TEL-AVIV UNIVERSITY LTD., priority 2006, published 2011)
